Data reported in US20240261297A1, “ANTI-CDK INHIBITORS FOR CANCER TREATMENT” (St. John's Cancer Institute, priority 2021, published 2024).

Tests used:
CDK1/Cyclin B1 = biological target: T1, CDK1/Cyclin B1 (Homo sapiens, UniProt P06493); assay: NanoBRET target engagement intracellular kinase assay in HEK293 cells; type: cell-based; settings: transfected HEK293 cells; 10-dose, 3-fold from 10 μM, duplicate
T1 construct: expressed in transfected cells; host or cells: HEK293
Method: (§1) Compound 1-3 efficacy was assessed in several in vitro assays. A nanoBrET assay was used to measure intracellular kinase activity of I-3 with CDK2, CDK1, CDK7 and CDK9. Briefly, HEK293 cells were transfected with CDK2, CDK1, CDK7 and CDK9. The transfected cells were treated in duplicate with test compound I-3 (starting at 10 μM, 10-dose with 3-fold dilution) and target engagement was measured by NanoBRET assay (FIG. 2A and Table 4). Cellular thermal shift assay (CETSA) was also performed to evaluate drug target interaction in the cells. The CETSA method is built upon two concepts: cellular thermal shift and isothermal dose-response. The cellular thermal shift assay is based on the established fact that proteins that are complexed to a ligand become more resistant to heat induced unfolding. Isothermal dose response is used to determine a compound's potency in binding the target by measuring the thermal stability of the target treated with various concentrations of compound at a fixed temperature. Briefly, cell lysate was treated with I-3 (starting at 300 nM, 10-dose with 3-fold dilution) and incubated for 1 hour and cell lysates were then subjected to predetermined thermal aggregation temperature (58° C.) for another 20 min. Western blot was performed to determine the levels of target protein bound to I-3 (FIG. 2B).

CDK2/Cyclin E1 = biological target: T2, CDK2/Cyclin E1 (Homo sapiens, UniProt P24941); assay: as above; type: cell-based; settings: transfected HEK293 cells; 10-dose, 3-fold from 10 μM, duplicate
T2 construct: expressed in transfected cells; host or cells: HEK293
Method: as §1

T1 sequence (P06493 whole entry): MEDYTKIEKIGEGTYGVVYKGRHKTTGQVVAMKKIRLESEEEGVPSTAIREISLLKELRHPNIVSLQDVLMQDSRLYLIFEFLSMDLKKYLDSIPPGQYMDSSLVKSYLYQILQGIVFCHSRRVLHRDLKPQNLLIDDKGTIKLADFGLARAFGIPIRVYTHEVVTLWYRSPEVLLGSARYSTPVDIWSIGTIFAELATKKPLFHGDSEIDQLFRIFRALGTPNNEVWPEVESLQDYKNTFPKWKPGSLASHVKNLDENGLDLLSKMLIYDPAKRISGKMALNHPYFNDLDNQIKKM
T1 sequence (P14635 whole entry partner): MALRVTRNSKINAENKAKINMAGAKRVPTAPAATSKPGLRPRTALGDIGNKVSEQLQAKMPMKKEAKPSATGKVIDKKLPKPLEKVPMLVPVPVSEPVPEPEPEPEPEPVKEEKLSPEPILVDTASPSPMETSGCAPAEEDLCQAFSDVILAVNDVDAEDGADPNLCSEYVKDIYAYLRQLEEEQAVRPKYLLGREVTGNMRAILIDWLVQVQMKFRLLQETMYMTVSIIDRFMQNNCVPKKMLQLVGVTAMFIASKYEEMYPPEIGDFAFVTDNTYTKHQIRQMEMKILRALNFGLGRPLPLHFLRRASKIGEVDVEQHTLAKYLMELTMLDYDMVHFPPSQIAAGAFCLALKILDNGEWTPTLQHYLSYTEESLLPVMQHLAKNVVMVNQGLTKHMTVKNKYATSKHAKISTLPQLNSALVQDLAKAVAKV

Nc1nccc(-c2c[nH]c3nccc(Oc4cccc(F)c4)c23)n1 [I-3, 4-(4-(3-fluorophenoxy)-1H-pyrrolo[2,3-b]pyridin-3-yl)pyrimidin-2-amine] showed an IC50 (CDK1/Cyclin B1) of 1070 nM and an IC50 (CDK2/Cyclin E1) of 22 nM.
